Results published in PMC9402538, “Rational design of a sensitivity-enhanced tracer for discovering efficient APC–Asef inhibitors” (Nature Communications, 2022).
Where “and” joins values, the source holds several entries; their conditions need not be identical. Equal values may be shown once. Read-outs that look alike come from different tables or passages of the source. Where a SMILES comes first, the peptide text is derived from it. The star is where a group is joined. Pyrrole(1-Me-2-CO) = Cn1cccc1C(=O)*; Pyrrole2CO = O=C(c1ccc[nH]1)*; Picolinoyl = O=C(c1ccccn1)*

Legend:
LS-174T cells = assay: DBZ-induced goblet cell differentiation of LS-174T cells (RT-PCR); format: cell-based; details: 1 μM DBZ
Description: . Notch inhibition by dibenzazepine (DBZ) allows colorectal stem cells to differentiate into goblet cells, and the DBZ-induced goblet cell differentiation of LS-174T cells is a well-established intestinal differentiation model. […].
Total RNA was extracted using TRIzol reagent (Takara Bio Inc., Japan) following the manufacturer’s instructions. Total RNA (1 μg) was reverse-transcribed into cDNA using the PrimeScript RT Kit (Takara Bio Inc., Japan). Quantitative real-time reverse transcription-PCR was performed using a SYBR Green kit (Vazyme, China). β-Actin mRNA was employed as a reference gene for expression normalization. The qPCR primer sequences are listed in Supplementary Table 8. […]
Supplementary Fig. 17. Effect of […] on apoptosis and cell differentiation. a,b) Flow cytometry apoptosis analysis of SW480 (a) and HIEC-6 (b) cells treated with 25 μM MAIT -516 for 48 h, the gating strategy is shown for control sample . c) RT-PCR analysis of genes involved in intestinal cell differentiation ( MUC2, ATOH1, HES1, SPDEF and TFF3) in LS-174T cells. LS-174T cells were treated […]
mean ± SD (n = 3 independent experiments). p values were calculated by one-way ANOVA with Tukey’s multiple comparisons test.
Source data are provided as a Source Data file.
(1 picture or pasted object on this page, not shown here)

APC = target: T1, APC (Homo sapiens, UniProt P25054); assay: FP competitive assay using tracer 1; format: binding; details: for IC50: Supplementary Table 4, read-out: IC50, Tracer 1; for FP(mp): Tracer 1, triplicate raw readings
T1 sequence (P25054 303-739): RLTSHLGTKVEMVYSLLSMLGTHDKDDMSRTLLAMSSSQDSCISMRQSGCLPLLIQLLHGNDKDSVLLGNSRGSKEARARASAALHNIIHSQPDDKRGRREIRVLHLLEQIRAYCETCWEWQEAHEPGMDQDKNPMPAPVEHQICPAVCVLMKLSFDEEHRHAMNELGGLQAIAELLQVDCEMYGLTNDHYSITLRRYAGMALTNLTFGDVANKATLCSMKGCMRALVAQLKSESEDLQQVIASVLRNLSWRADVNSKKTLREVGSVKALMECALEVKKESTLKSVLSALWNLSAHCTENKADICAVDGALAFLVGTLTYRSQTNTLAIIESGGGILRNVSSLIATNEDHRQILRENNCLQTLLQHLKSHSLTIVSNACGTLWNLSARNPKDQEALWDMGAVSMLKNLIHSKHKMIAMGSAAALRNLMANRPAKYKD
Description: In our previous study, we established an FP assay for screening APC–Asef inhibitors using FITC-labeled tracer 1 (Ac–^176[…][FITC]^195–NH2)[16]. […]. However, their Kd values measured by isothermal titration calorimetry (ITC) actually vary up to more than 20 times[16],[17]. […].
FITC-labeled tracer peptides were obtained from Changzhou Kanglong Biotech Ltd. (Changzhou, Jiangsu, China). […]. The FP signal changes upon tracer binding were measured after 1.5 h of incubation using a Synergy neo microplate reader (BioTek Instruments, Inc.) and plotted against the protein concentration. The corresponding EC50 values were generated by fitting the curves with a nonlinear regression model. […]. To make a working solution, APC (303–739) was diluted in FP buffer (50 mM HEPES, pH 7.5, 300 mM NaCl, 1 mM EDTA, 1 mM DTT). […] The FP signals were measured after 1.5 h of incubation at room temperature using a Synergy neo microplate reader. Three controls were included on each plate, i.e., blank (without protein and tracer), 100% inhibition (free tracer only), and 0% inhibition (protein/tracer complex only) controls. All experiments were performed in triplicate. The IC50 values of peptides were calculated by nonlinear regression analysis using GraphPad Prism 7.0 software.

APC (303–739) = target: T2, APC (303–739) (Homo sapiens, UniProt P25054); assay: FP competitive assay using tracer 7; format: binding; details: for IC50: Table 3 source data; for FP(mp): Tracer 7, replicate wells
T2 sequence (P25054 303-739): T1 sequence (P25054 303-739)
Method in brief: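 Fluorescence polarization competition: APC (303–739) in 50 mM HEPES pH 7.5, 300 mM NaCl, 1 mM EDTA, 1 mM DTT, preincubated 1 h at room temperature with serially diluted peptides. FITC tracer 7 then added (400 nM stock) and FP read after 1.5 h at room temperature; IC50 by nonlinear regression, triplicates.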

[1] = Repeat 1, read-out: IC50(μM) Repeat 1
[2] = Repeat 2, read-out: IC50(μM) Repeat 2
[3] = Repeat 3, read-out: IC50(μM) Repeat 3
[4] = mean of 3 repeats, read-out: IC50(μM) mean

IC50 (APC) [nM]	FP(mp) (APC; Conc. 0.05 μM)	FP(mp) (APC; Conc. 0.10 μM)	FP(mp) (APC; Conc. 0.20 μM)	FP(mp) (APC; Conc. 0.39 μM)	FP(mp) (APC; Conc. 0.78 μM)	FP(mp) (APC; Conc. 1.56 μM)	FP(mp) (APC; Conc. 3.13 μM)	FP(mp) (APC; Conc. 6.25 μM)	FP(mp) (APC; Conc. 12.50 μM)	FP(mp) (APC; Conc. 25.00 μM)	FP(mp) (APC; Conc. 50.00 μM)	FP(mp) (APC; Conc. 100.00 μM)	FP(mp) (APC; Conc. 200.00 μM)	FP(mp) (APC; Conc. 400.00 μM)	IC50 (APC (303–739); [1]) [µM]	IC50 (APC (303–739); [2]) [µM]	IC50 (APC (303–739); [3]) [µM]	FP(mp) (APC (303–739); Conc. 0.0061 μM)	FP(mp) (APC (303–739); Conc. 0.0122 μM)	SMILES	also measured
–	–	–	–	–	–	–	–	–	–	–	–	–	–	–	–	–	–	–	–	C[C@H](NC(=O)Cc1cc(F)cc(F)c1)C(=O)N[C@@H]1C(=O)N(C)c2ccccc2-c2ccccc21 [DBZ, dibenzazepine]	mRNA level of NOTCH target gene HES1 (LS-174T cells): significantly suppressed; mRNA levels of goblet cell markers (MUC2, TFF3, ATOH1, SPDEF) (LS-174T cells): increasing the mRNA levels
640 ± 170	182 mp and 179 mp	180 mp and 177 mp	175 mp and 169 mp and 173 mp	157 mp and 159 mp and 160 mp	120 mp and 128 mp and 126 mp	72 mp and 73 mp	56 mp and 54 mp	52 mp and 55 mp and 51 mp	50 mp and 51 mp and 47 mp	50 mp and 48 mp	48 mp and 50 mp and 46 mp	50 mp and 51 mp and 47 mp	48 mp and 50 mp	57 mp and 53 mp	0.595	0.526	0.599	288 mp and 294 mp and 291 mp	287 mp and 290 mp and 289 mp	CC(C)C[C@H](NC(=O)[C@H](CO)NC(=O)[C@H](CCC(=O)O)NC(=O)CNC(=O)[C@H](C)NC(=O)c1ccc[nH]1)C(=O)N[C@@H](Cc1ccc(O)cc1)C(=O)N[C@@H](CCC(=O)O)C(N)=O [MAI-509] (Pyrrole2CO-AGESLYE-NH2)	FP(mp) (APC (303–739); Conc. 0.0244 μM): 290 mp (2×) and 292 mp; FP(mp) (APC (303–739); Conc. 0.05 μM): 281 mp and 276 mp and 278 mp; FP(mp) (APC (303–739); Conc. 0.10 μM): 261 mp and 262 mp and 266 mp; FP(mp) (APC (303–739); Conc. 0.20 μM): 233 mp and 232 mp and 238 mp; FP(mp) (APC (303–739); Conc. 0.39 μM): 196 mp and 201 mp and 193 mp; FP(mp) (APC (303–739); Conc. 0.78 μM): 163 mp and 164 mp (2×); FP(mp) (APC (303–739); Conc. 1.56 μM): 129 mp and 126 mp (2×); FP(mp) (APC (303–739); Conc. 3.13 μM): 103 mp and 101 mp (2×); FP(mp) (APC (303–739); Conc. 6.25 μM): 81 mp and 84 mp and 83 mp; FP(mp) (APC (303–739); Conc. 12.50 μM): 71 mp and 69 mp and 67 mp; FP(mp) (APC (303–739); Conc. 25.00 μM): 65 mp and 63 mp (2×); FP(mp) (APC (303–739); Conc. 50.00 μM): 63 mp and 60 mp (2×); IC50 (APC (303–739); [4]): 0.573 µM
490 ± 130	182 mp and 181 mp and 180 mp	170 mp and 178 mp and 179 mp	158 mp and 172 mp	146 mp and 158 mp and 159 mp	82 mp and 112 mp and 116 mp	61 mp and 63 mp and 64 mp	52 mp and 51 mp and 53 mp	51 mp and 50 mp	49 mp and 48 mp	49 mp and 46 mp and 48 mp	46 mp and 47 mp and 50 mp	48 mp and 49 mp and 50 mp	48 mp and 47 mp	50 mp and 52 mp	0.366	0.34	0.303	303 mp	296 mp and 295 mp and 301 mp	CC(C)C[C@H](NC(=O)[C@H](CO)NC(=O)[C@H](CCC(=O)O)NC(=O)CNC(=O)[C@H](C)NC(=O)c1cccn1C)C(=O)N[C@@H](Cc1ccc(O)cc1)C(=O)N[C@@H](CCC(=O)O)C(N)=O [MAI-510] ({Pyrrole(1-Me-2-CO)}-AGESLYE-NH2)	FP(mp) (APC (303–739); Conc. 0.0244 μM): 291 mp and 290 mp and 295 mp; FP(mp) (APC (303–739); Conc. 0.05 μM): 274 mp and 278 mp and 275 mp; FP(mp) (APC (303–739); Conc. 0.10 μM): 247 mp and 251 mp and 254 mp; FP(mp) (APC (303–739); Conc. 0.20 μM): 216 mp and 217 mp and 220 mp; FP(mp) (APC (303–739); Conc. 0.39 μM): 171 mp and 173 mp and 169 mp; FP(mp) (APC (303–739); Conc. 0.78 μM): 131 mp and 132 mp (2×); FP(mp) (APC (303–739); Conc. 1.56 μM): 98 mp and 97 mp and 95 mp; FP(mp) (APC (303–739); Conc. 3.13 μM): 71 mp and 73 mp and 75 mp; FP(mp) (APC (303–739); Conc. 6.25 μM): 62 mp and 60 mp and 65 mp; FP(mp) (APC (303–739); Conc. 12.50 μM): 52 mp and 53 mp and 55 mp; FP(mp) (APC (303–739); Conc. 25.00 μM): 50 mp (2×) and 55 mp; FP(mp) (APC (303–739); Conc. 50.00 μM): 47 mp and 50 mp (2×); IC50 (APC (303–739); [4]): 0.336 µM
750 ± 180	172 mp and 170 mp	168 mp	166 mp and 163 mp and 165 mp	156 mp and 155 mp and 153 mp	126 mp and 125 mp and 122 mp	80 mp and 79 mp and 78 mp	59 mp and 55 mp	52 mp and 50 mp	53 mp and 48 mp and 50 mp	51 mp and 48 mp and 47 mp	51 mp and 48 mp and 47 mp	51 mp and 53 mp	51 mp and 47 mp and 50 mp	53 mp and 50 mp and 47 mp	1.04	0.958	0.93	305 mp and 310 mp and 308 mp	307 mp and 310 mp (2×)	CC(C)C[C@H](NC(=O)[C@H](CO)NC(=O)[C@H](CCC(=O)O)NC(=O)CNC(=O)[C@H](C)NC(=O)c1ccccn1)C(=O)N[C@@H](Cc1ccc(O)cc1)C(=O)N[C@@H](CCC(=O)O)C(N)=O [MAI-512] (Picolinoyl-AGESLYE-NH2)	FP(mp) (APC (303–739); Conc. 0.0244 μM): 298 mp and 303 mp and 300 mp; FP(mp) (APC (303–739); Conc. 0.05 μM): 293 mp and 300 mp and 297 mp; FP(mp) (APC (303–739); Conc. 0.10 μM): 290 mp and 286 mp and 291 mp; FP(mp) (APC (303–739); Conc. 0.20 μM): 266 mp and 274 mp and 271 mp; FP(mp) (APC (303–739); Conc. 0.39 μM): 242 mp and 240 mp and 236 mp; FP(mp) (APC (303–739); Conc. 0.78 μM): 199 mp (2×) and 200 mp; FP(mp) (APC (303–739); Conc. 1.56 μM): 160 mp and 157 mp and 158 mp; FP(mp) (APC (303–739); Conc. 3.13 μM): 119 mp (2×) and 121 mp; FP(mp) (APC (303–739); Conc. 6.25 μM): 94 mp and 89 mp and 91 mp; FP(mp) (APC (303–739); Conc. 12.50 μM): 80 mp and 77 mp and 78 mp; FP(mp) (APC (303–739); Conc. 25.00 μM): 69 mp and 66 mp and 65 mp; FP(mp) (APC (303–739); Conc. 50.00 μM): 61 mp and 57 mp and 60 mp; IC50 (APC (303–739); [4]): 0.976 µM
